Experimental data taken from patent US20230357233A1, “HETEROARYL COMPOUNDS, PREPARATION METHODS AND USES THEREOF” (INVENTISBIO CO., LTD., priority 2020, published 2023).

Biological target: Ba/F3_KRAS^G12D cells (Homo sapiens, UniProt P01116, G12D, cells depend on it)
Assay: Ba/F3 KRAS^G12D cell proliferation assay (cell-titer Glo)
Type: cell-based
Details: cell growth inhibition, treated with the compounds for 3 days, read-out: BaF3_KRAS^G12D IC50
Description: Cells were seeded at a density of 5×10^3 per well into 96-well plate and incubated overnight. Serial diluted compounds were added to each well. Cells were treated with the compounds for 3 days, after which cell-titer Glo reagent (Promega #G7572) was used to assess cell proliferation. The luminescence signal was then collected on Tecan Spark plate reader. […] Cell growth inhibition of IC50 is calculated with the equation of Y=Bottom+(Top−Bottom)/(1+10^((LogIC50−X)*HillSlope))

Ba/F3_KRAS^G12D cells, sequence (P01116 whole entry G12D): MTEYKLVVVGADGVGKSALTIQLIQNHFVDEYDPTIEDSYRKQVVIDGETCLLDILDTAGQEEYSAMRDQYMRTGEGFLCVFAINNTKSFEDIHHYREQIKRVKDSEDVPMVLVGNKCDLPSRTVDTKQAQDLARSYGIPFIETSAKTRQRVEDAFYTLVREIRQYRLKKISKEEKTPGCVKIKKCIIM

**Q.** With `C#Cc1c(F)ccc2cc(O)cc(-c3c(F)c4nc(OC[C@@]56CCCN5C[C@H](F)C6)nc(N5CC6CCC(C5)N6)c4c4ncnn34)c12` (single isomer, unassigned) [Compound 155] as the molecule, how does the GI50 read?
**A.** Its GI50 is < 0.5 µM.

**Q.** How did the GI50 turn out when `C#Cc1c(F)ccc2cc(O)cc(-c3c(F)c4nc(OC[C@@]56CCCN5C[C@H](F)C6)nc(N5CC6CCC(C5)N6)c4c4ncnn34)c12` (single isomer, unassigned) [Compound 156] was run?
**A.** The GI50 was < 0.5 µM.

**Q.** How did the GI50 turn out when `C#Cc1c(F)ccc2cc(O)cc(-c3ncc4c(N5CC6CCC(C5)N6)nc(OC[C@@]56CCCN5C[C@H](F)C6)nc4c3F)c12` [Compound 129] was run?
**A.** The GI50 was < 0.5 µM.

**Q.** `CCc1c(F)ccc2cc(O)cc(-c3ncc4c(N5CC6CCC(C5)N6)nc(OC[C@@]56CCCN5C[C@H](F)C6)nc4c3F)c12` [Compound 140] was tested. Which GI50 did it give?
**A.** Its GI50 is < 0.5 µM.

**Q.** How did the GI50 turn out when `C#Cc1c(F)ccc2c(F)c(O)cc(-c3nc(C)c4c(N5CC6CCC(C5)N6)nc(OC[C@@]56CCCN5C[C@H](F)C6)nc4c3F)c12` [Compound 143] was run?
**A.** Its GI50 is < 0.5 µM.

**Q.** Which GI50 does the source give for `Cc1nc(-c2cc(O)cc3ccc(F)c(OC(F)F)c23)c(F)c2nc(OC[C@@]34CCCN3C[C@H](F)C4)nc(N3CC4CCC(C3)N4)c12` [Compound 144] here?
**A.** The GI50 was < 0.5 µM.

**Q.** How did the GI50 turn out when `CNC(=O)COc1nc(-c2cc(O)cc3ccccc23)c(F)c2nc(OC[C@@]34CCCN3C[C@H](F)C4)nc(N3CC4CCC(C3)N4)c12` [Compound 145] was run?
**A.** Its GI50 is 0.5 to 5 µM.

**Q.** `CC#Cc1c(F)ccc2cc(O)cc(-c3nc(OC)c4c(N5CC6CCC(C5)N6)nc(OC[C@@]56CCCN5C[C@H](F)C6)nc4c3F)c12` [Compound 146] was tested. Which GI50 did it give?
**A.** The GI50 was < 0.5 µM.

**Q.** How did the GI50 turn out when `C#Cc1c(F)ccc2cc(O)cc(-c3nc(OC(C)C)c4c(N5CC6CCC(C5)N6)ncnc4c3F)c12` [Compound 150] was run?
**A.** The GI50 was < 0.5 µM.

**Q.** How did the GI50 turn out when `CCc1c(F)ccc2c(F)c(O)cc(-c3nc(C)c4c(N5CC6CCC(C5)N6)nc(OC[C@@]56CCCN5C[C@H](F)C6)nc4c3F)c12` [Compound 151] was run?
**A.** The GI50 was > 5 µM.

**Q.** With `C#Cc1c(F)ccc2cc(O)cc(-c3nc(OCC(F)(F)F)c4c(N5CC6CCC(C5)N6)ncnc4c3F)c12` [Compound 153] as the molecule, how does the GI50 read?
**A.** The GI50 was 0.5 to 5 µM.

**Q.** For `C#Cc1c(F)ccc2cccc(-c3nc(O)c4c(N5CC6CCC(C5)N6)nc(OC[C@@]56CCCN5C[C@H](F)C6)nc4c3F)c12` [Compound 154], which GI50 is on record?
**A.** Its GI50 is 0.5 to 5 µM.

**Q.** Which GI50 does the source give for `CCc1cccc2cc(N)cc(-c3nc(OC)c4c(N5CC6CCC(C5)N6)nc(OC[C@@]56CCCN5C[C@H](F)C6)nc4c3F)c12` [Compound 157] here?
**A.** Its GI50 is < 0.5 µM.

**Q.** `C#Cc1c(F)ccc2cc(N)cc(-c3nc(Cl)c4c(N5CC6CCC(C5)N6)nc(OC[C@@]56CCCN5C[C@H](F)C6)nc4c3F)c12` [Compound 158] was tested. Which GI50 did it give?
**A.** Its GI50 is < 0.5 µM.

**Q.** For `C#Cc1c(F)ccc2cc(O)cc(-c3nc(OC)c4c(N5CC6CCC(C5)N6)ncnc4c3F)c12` [Compound 161], which GI50 is on record?
**A.** The GI50 was < 0.5 µM.

**Q.** For `C#Cc1c(F)ccc2cc(O)cc(-c3nc(OC)c4c(N5CC6CCC(C5)N6)nc(OC)nc4c3F)c12` [Compound 162], which GI50 is on record?
**A.** The GI50 was < 0.5 µM.

**Q.** `CCc1c(F)ccc2cc(N)cc(-c3nc(OC)c4c(N5CC6CCC(C5)N6)nc(OC[C@@]56CCCN5C[C@H](F)C6)nc4c3F)c12` [Compound 164] was tested. Which GI50 did it give?
**A.** The GI50 was < 0.5 µM.

**Q.** For `Oc1cc(-c2nc(C(F)F)c3c(N4CC5CCC(C4)N5)nc(OC[C@@]45CCCN4C[C@H](F)C5)nc3c2F)c2c(Cl)c(F)ccc2c1` [Compound 167], which GI50 is on record?
**A.** The GI50 was < 0.5 µM.

**Q.** For `C#Cc1c(F)ccc2cccc(-c3nc(OCC)c4c(N5CC6CCC(C5)N6)nc(OC[C@@]56CCCN5C[C@H](F)C6)nc4c3F)c12` [Compound 168], which GI50 is on record?
**A.** Its GI50 is < 0.5 µM.

**Q.** With `C#Cc1c(F)ccc2cc(O)cc(-c3nc(OCC)c4c(N5CC6CCC(C5)O6)nc(OC[C@@]56CCCN5C[C@H](F)C6)nc4c3F)c12` [Compound 169] as the molecule, how does the GI50 read?
**A.** Its GI50 is < 0.5 µM.

**Q.** Which GI50 does the source give for `C#Cc1c(F)ccc2cc(O)cc(-c3nc(C(F)(F)F)c4c(N5CC6CCC(C5)N6)nc(OC[C@@]56CCCN5C[C@H](F)C6)nc4c3F)c12` [Compound 170] here?
**A.** The GI50 was < 0.5 µM.

**Q.** `C#Cc1c(F)ccc2cc(O)cc(-c3nc(OCC)c4c(N5CCNC6(CCC6)C5)nc(OC[C@@]56CCCN5C[C@H](F)C6)nc4c3F)c12` [Compound 172] was tested. Which GI50 did it give?
**A.** The GI50 was < 0.5 µM.

**Q.** Which GI50 does the source give for `Oc1cc(-c2nc(O)c3c(N4CC5CCC(C4)N5)nc(OC[C@@]45CCCN4C[C@H](F)C5)nc3c2F)c2c(Cl)c(F)ccc2c1` [Compound 174] here?
**A.** Its GI50 is 0.5 to 5 µM.

**Q.** For `C#Cc1c(F)ccc2cc(O)cc(-c3nc(OC)c4c(N5CC6CCC(C5)N6)nc(OC[C@@]56CCCN5[C@H](COC(=O)N(C)C)CC6)nc4c3F)c12` [Compound 175], which GI50 is on record?
**A.** The GI50 was < 0.5 µM.

**Q.** For `C#Cc1c(F)ccc2cc(O)cc(-c3nc(OC)c4c(N5CC6CCC(C5)N6)nc(OC[C@@]56CCCN5[C@@H](COC(=O)N(C)C)CC6)nc4c3F)c12` [Compound 177], which GI50 is on record?
**A.** The GI50 was < 0.5 µM.

**Q.** `C#Cc1c(F)ccc2cc(O)cc(-c3nc(OC)c4c(N5CC6CCC(C5)N6)nc(OC[C@]56CCCN5[C@H](COC(=O)N(C)C)CC6)nc4c3F)c12` [Compound 178] was tested. Which GI50 did it give?
**A.** Its GI50 is < 0.5 µM.

**Q.** `C#Cc1c(F)ccc2cc(O)cc(-c3nc(OCC(F)F)c4c(N5CC6CCC(C5)N6)nc(OC[C@@]56CCCN5C[C@H](F)C6)nc4c3F)c12` [Compound 180] was tested. Which GI50 did it give?
**A.** The GI50 was < 0.5 µM.

**Q.** How did the GI50 turn out when `C#Cc1c(F)ccc2cc(O)cc(-c3nc(C4CC4)c4c(N5CC6CCC(C5)N6)nc(OC[C@@]56CCCN5C[C@H](F)C6)nc4c3F)c12` [Compound 181] was run?
**A.** The GI50 was < 0.5 µM.

**Q.** For `C#Cc1c(F)ccc2cc(O)cc(-c3nc(OC)c4c(N5CC6CCC(C5)N6)nc(OCC5(CN(C)C)CC5)nc4c3F)c12` [Compound 182], which GI50 is on record?
**A.** Its GI50 is < 0.5 µM.

**Q.** How did the GI50 turn out when `C#Cc1c(F)ccc2cc(O)cc(-c3nc(OC)c4c(N5CC6CCC(C5)N6)nc(OCC5(CN6CCCC6)CC5)nc4c3F)c12` [Compound 183] was run?
**A.** The GI50 was < 0.5 µM.

**Q.** How did the GI50 turn out when `C#Cc1c(F)ccc2cc(O)cc(-c3nc(OC)c4c(N5CC6CCC(C5)N6)nc(OCC5(CN6CCC6)CC5)nc4c3F)c12` [Compound 184] was run?
**A.** The GI50 was < 0.5 µM.

**Q.** With `C#Cc1c(F)ccc2cc(O)cc(-c3nc(OC)c4c(N5CC6CCC(C5)N6)nc(OCC5(CN6CCOCC6)CC5)nc4c3F)c12` [Compound 185] as the molecule, how does the GI50 read?
**A.** Its GI50 is < 0.5 µM.

**Q.** For `C#Cc1c(F)ccc2cc(O)cc(-c3nc(OC(C)C)c4c(N5CC6CCC(C5)N6)nc(NC)nc4c3F)c12` [Compound 186], which GI50 is on record?
**A.** Its GI50 is 0.5 to 5 µM.

**Q.** With `C#Cc1c(F)ccc2cc(O)cc(-c3nc(O)c4c(N5CC6CCC(C5)N6)nc(NC)nc4c3F)c12` [Compound 187] as the molecule, how does the GI50 read?
**A.** Its GI50 is 0.5 to 5 µM.

**Q.** With `C#Cc1c(F)ccc2cc(O)cc(-c3nc(OC(C)C)c4c(N5CC6CCC(C5)N6)nc(N)nc4c3F)c12` [Compound 188] as the molecule, how does the GI50 read?
**A.** The GI50 was 0.5 to 5 µM.

**Q.** For `C#Cc1c(F)ccc2cc(O)cc(-c3nc(OC(C)C)c4c(N5CC6CCC(C5)N6)nc(N(C)C)nc4c3F)c12` [Compound 189], which GI50 is on record?
**A.** The GI50 was 0.5 to 5 µM.

**Q.** With `C#Cc1c(F)ccc2cc(O)cc(-c3nc(OC(C)C)c4c(N5CC6CCC(C5)N6)nc(C(F)F)nc4c3F)c12` [Compound 190] as the molecule, how does the GI50 read?
**A.** Its GI50 is < 0.5 µM.

**Q.** With `C#Cc1c(F)ccc2cc(O)cc(-c3nc(OC(C)C)c4c(N5CC6CCC(C5)N6)nc(OC)nc4c3F)c12` [Compound 191] as the molecule, how does the GI50 read?
**A.** Its GI50 is < 0.5 µM.

**Q.** With `C#Cc1c(F)ccc2cc(O)cc(-c3nc(OC(C)C)c4c(N5CC6CCC(C5)N6)nc(OCCOC)nc4c3F)c12` [Compound 192] as the molecule, how does the GI50 read?
**A.** The GI50 was < 0.5 µM.

**Q.** How did the GI50 turn out when `C#Cc1c(F)ccc2cc(O)cc(-c3nc(O)c4c(N5CC6CCC(C5)N6)nc(OCCOC)nc4c3F)c12` [Compound 193] was run?
**A.** The GI50 was < 0.5 µM.

**Q.** Which GI50 does the source give for `C#Cc1c(F)ccc2cc(O)cc(-c3nc(OC(C)C)c4c(N5CC6CCC(C5)N6)nc(OCCN(C)C)nc4c3F)c12` [Compound 194] here?
**A.** The GI50 was < 0.5 µM.

**Q.** With `C#Cc1c(F)ccc2cc(O)cc(-c3nc(O)c4c(N5CC6CCC(C5)N6)nc(OC[C@@H]5CCCN5C)nc4c3F)c12` [Compound 196] as the molecule, how does the GI50 read?
**A.** Its GI50 is 0.5 to 5 µM.

**Q.** How did the GI50 turn out when `Cc1nc(N)cc(-c2nc(OC(C)C)c3c(N4CC5CCC(C4)N5)nc(OC[C@@]45CCCN4C[C@H](F)C5)nc3c2F)c1C(F)(F)F` [Compound 198] was run?
**A.** Its GI50 is < 0.5 µM.
